In US20250332300A1 (priority 2024, published 2025) one finds Kd and IC50 data, which are given here for nine molecules.

Counter-ions that a name gives are not always drawn. Like-named read-outs stand apart in the source and are kept apart here. Starred links: 1 amine or outer side, 2 acyl side, 3 side chain; linkers in the order of their positions; H or OH if unused. Positions of bridges follow the written chain, without caps; N, C: chain ends. Non-standard residues stand in square brackets, D forms with d. Residues, ends and D or L forms follow the SMILES beside them. *: point of attachment. Trp(5-OH) = N[C@@H](Cc1c[nH]c2ccc(O)cc12)C(=O)O; X9 = CN([C@@H](CCc1cccc(Cl)c1)C(=O)[*:2])[*:1]; NMePhe(4-F) = CN[C@@H](Cc1ccc(F)cc1)C(=O)O; β2hAla(2S) = C[C@@H](CN[*:1])C(=O)[*:2]; NMehPhe = CN[C@@H](CCc1ccccc1)C(=O)O; NMeE = CN[C@@H](CCC(=O)O)C(=O)O; Aad = N[C@@H](CCCC(=O)O)C(=O)O; Gly(cPr) = N[C@H](C(=O)O)C1CC1; NMeK = CN[C@@H](CCCCN)C(=O)O; NMeDap = CN[C@@H](CN)C(=O)O; Tfa = O=C(C(F)(F)F)*

In experiment [1] the target is human HER2 (23-652) (Homo sapiens, UniProt P04626). Nature of the experiment: Surface plasmon resonance (SPR) for assessment of peptide affinity, human HER2. Also noted: towards human HER2 (23-652) and mouse HER2 (23-653); made in house. The class given is binding. Here is the method: Each protein was immobilized either onto a SA sensorchip (Cytiva, BR-1005-31) or CM5 sensorchip (Cytiva, BR-1005-30) to a density of 800-2000 RU. […] For the assay setup the same conditions (flow rate, running buffer, peptide dilution) as described above were used. In a first step the Anti Fc IgG Ab (from Human Antibody Capture Kit, Ref. 29234600, Cytiva) was diluted into acetate pH 5.0 at 25 ug/mL and immobilized at a flow rate of 10 uL/min over 360 s to reach a density around 6000 RU. […] The peptides were tested with an association time of 280 s followed by a dissociation time of 3000 s at a flow rate of 30 uL/min. The regeneration was done using 3 M magnesium chloride regeneration solution as obtained with a contact time of 30 s at a flow rate of 10 uL/min. Curve fitting was performed using the BiacoreTM 8K evaluation software.

For experiment [2], the target named is mouse HER2 (23-653) (Mus musculus, UniProt P70424). Nature of the experiment: TR-FRET competition assay for peptide potency, mouse HER2. The experiment is classed as binding. On the set-up: mouse HER2 (23-653) using a Cy5 labeled peptide as a probe; made in house; host or cells: mammalian cells. Conditions: TR-FRET competition with Cy5 labeled peptide probe, 0.1 nM mouse HER2, 24 h incubation; read-out: moHER2 TR-FRET IC50. Here is the method:
Both proteins containing a His-, Avi-tag and biotin in Nterminus, were expressed in mammalian cells and produced in house. […] Standard assay conditions consist of 20 uL total volume in white 384-well plates (Greiner), in 10 mM HEPES buffer containing 150 mM NaCl, 3 mM EDTA, 0.05% Tween20 and 1% final DMSO. […] The ratiometric FRET assay readout is calculated from the ratio of the raw data of the two distinct fluorescence signals measured in time resolved mode (fluorescence 665 nm/fluorescence 620 nm). IC50 values were calculated with the standard Novartis in-house assay data analysis software (Helios software application, Novartis Institutes for BioMedical Research, unpublished) using the methods described in Comput. Methods. Programs. Biomed. 2006, 82, 31-37 (regression algorithms for nonlinear dose-response curve fitting).
Background: Time-resolved FRET reads energy transfer from a long-lived donor to a nearby acceptor.

[3] abbreviates: SPR, human HER2 extracellular domain, 25° C., 1:1 binding model, read-out: huHER2-SPR-ONC KD.

One may read the Kd as the free concentration of one partner at which half of the binding sites on the other are occupied at equilibrium, for simple one-to-one binding. The term IC50 denotes the point on the concentration scale where inhibition reaches its midpoint. As to `CC(=O)N[C@H]1CCCC(=O)NC[C@@H](C(=O)N(C)[C@@H](Cc2ccc(F)cc2)C(N)=O)N(C)C(=O)[C@H](C2CC2)NC(=O)[C@H](Cc2c[nH]c3ccccc23)NC(=O)[C@H](Cc2c[nH]c3ccc(O)cc23)NC(=O)[C@H](CCCCNC(=O)C(F)(F)F)N(C)C(=O)[C@H](CCc2ccccc2)N(C)C(=O)[C@H](CO)NC(=O)[C@H](Cc2ccc(O)cc2)NC1=O` [Example A4, (3S,6S,9S,12S,15S,18S,21S,24S,27S)-9-((1H-indol-3-yl)methyl)-27-acetamido-N-((S)-1-amino-3-(4-fluorophenyl)-1-oxopropan-2-yl)-6-cyclopropyl-12-((5-hydroxy-1H-indol-3-yl)methyl)-24-(4-hydroxybenzyl)-21-(hydroxymethyl)-N,4,16,19-tetramethyl-5,8,11,14,17,20,23,26,31-nonaoxo-18-phenethyl-15-(4-(2,2,2-trifluoroacetamido)butyl)-1,4,7,10,13,16,19,22,25-nonaazacyclohentriacontane-3-carboxamide] (Ac-[Aad]YS[NMehPhe][NMeK](Tfa)[Trp(5-OH)]W[Gly(cPr)][NMeDap][NMePhe(4-F)]-NH2; lactam 1-9), the dissociation constant Kd in experiment [1] (setting [3]) worked out at 8.9 nM. For the same molecule, the IC50 in experiment [2] stood at 29 nM.
Turning to `CC(=O)NCCCC[C@H]1C(=O)N[C@@H](Cc2c[nH]c3ccc(O)cc23)C(=O)N[C@@H](Cc2c[nH]c3ccccc23)C(=O)N[C@@H](C2CC2)C(=O)N(C)[C@H](C(=O)N(C)[C@@H](Cc2ccc(F)cc2)C(N)=O)CNC(=O)CCC[C@H](NC(C)=O)C(=O)N[C@@H](Cc2ccc(O)cc2)C(=O)N[C@@H](CO)C(=O)N(C)[C@@H](CCc2cccc(Cl)c2)C(=O)N1C` [Example A8, (3S,6S,9S,12S,15S,18S,21S,24S,27S)-9-((1H-indol-3-yl)methyl)-27-acetamido-15-(4-acetamidobutyl)-N-((S)-1-amino-3-(4-fluorophenyl)-1-oxopropan-2-yl)-18-(3-chlorophenethyl)-6-cyclopropyl-12-((5-hydroxy-1H-indol-3-yl)methyl)-24-(4-hydroxybenzyl)-21-(hydroxymethyl)-N,4,16,19-tetramethyl-5,8,11,14,17,20,23,26,31-nonaoxo-1,4,7,10,13,16,19,22,25-nonaazacyclohentriacontane-3-carboxamide] (Ac-[Aad]YS[X9][NMeK](Ac)[Trp(5-OH)]W[Gly(cPr)][NMeDap][NMePhe(4-F)]-NH2; lactam 1-9), the Kd in experiment [1] (setting [3]) came out at 1 nM. Moreover, the IC50 in experiment [2] stood at 2.3 nM.
For `CC(=O)NCCCC[C@H]1C(=O)N[C@@H](Cc2c[nH]c3ccc(O)cc23)C(=O)N[C@@H](Cc2c[nH]c3ccccc23)C(=O)N[C@@H](C2CC2)C(=O)N(C)[C@H](C(=O)N(C)[C@@H](Cc2ccc(F)cc2)C(N)=O)CCC(=O)NC[C@H](C)C(=O)N[C@@H](Cc2ccc(O)cc2)C(=O)N[C@@H](CO)C(=O)N(C)[C@@H](CCc2ccccc2)C(=O)N1C` [Example A22, (3S,6S,9S,12S,15S,18S,21S,24S,30S)-6-((1H-indol-3-yl)methyl)-12-(4-acetamidobutyl)-N-((S)-1-amino-3-(4-fluorophenyl)-1-oxopropan-2-yl)-3-cyclopropyl-9-((5-hydroxy-1H-indol-3-yl)methyl)-21-(4-hydroxybenzyl)-18-(hydroxymethyl)-N,1,13,16,24-pentamethyl-2,5,8,11,14,17,20,23,27-nonaoxo-15-phenethyl-1,4,7,10,13,16,19,22,26-nonaazacyclotriacontane-30-carboxamide] ([β2hAla(2S)]YS[NMehPhe][NMeK](Ac)[Trp(5-OH)]W[Gly(cPr)][NMeE][NMePhe(4-F)]-NH2; lactam N-9) the same measures were 9.7 nM and 9.9 nM.
For the molecule `CC(=O)N[C@H]1CCCC(=O)NC[C@@H](C(=O)N(C)[C@@H](Cc2ccc(F)cc2)C(=O)N[C@@H](CCCCNC(=O)CN2CCN(CC(=O)O)CCN(CC(=O)O)CCN(CC(=O)O)CC2)C(N)=O)N(C)C(=O)[C@H]([C@H](C)O)NC(=O)[C@H](Cc2c[nH]c3ccccc23)NC(=O)[C@H](Cc2c[nH]c3ccc(O)cc23)NC(=O)[C@H](CCCCNC(=O)CCO)N(C)C(=O)[C@H](CCc2ccccc2)N(C)C(=O)[C@H](CO)NC(=O)[C@H](Cc2ccc(O)cc2)NC1=O` [Example C22], in experiment [1] (setting [3]), the Kd turned out to be 0.5 nM.
Take `CC(=O)NCCCC[C@H]1C(=O)N[C@@H](Cc2c[nH]c3ccc(O)cc23)C(=O)N[C@@H](Cc2c[nH]c3ccccc23)C(=O)N[C@@H](C2CC2)C(=O)N(C)[C@H](C(=O)N(C)[C@@H](Cc2ccc(F)cc2)C(=O)N[C@@H](CCCCNC(=O)CN2CCN(CC(=O)O)CCN(CC(=O)O)CCN(CC(=O)O)CC2)C(N)=O)CNC(=O)CCC[C@H](NC(C)=O)C(=O)N[C@@H](Cc2ccc(O)cc2)C(=O)N[C@@H](CO)C(=O)N(C)[C@@H](CCc2ccccc2)C(=O)N1C` [Example C29]: the IC50 in experiment [2] turned out to be 0.2 nM.
As for `CC[N+]1=C(/C=C/C=C/C=C2/N(CCCCCC(=O)NCCCC[C@H](NC(=O)[C@H](Cc3ccc(F)cc3)N(C)C(=O)[C@@H]3CNC(=O)CCC[C@H](NC(C)=O)C(=O)N[C@@H](Cc4ccc(O)cc4)C(=O)N[C@@H](CO)C(=O)N(C)[C@@H](CCc4ccccc4)C(=O)N(C)[C@@H](CCCCNC(C)=O)C(=O)N[C@@H](Cc4c[nH]c5ccc(O)cc45)C(=O)N[C@@H](Cc4c[nH]c5ccccc45)C(=O)N[C@@H](C4CC4)C(=O)N3C)C(N)=O)c3ccc(S(=O)(=O)O)cc3C2(C)C)C(C)(C)c2cc(S(=O)(=O)[O-])ccc21` [Example D1], the Kd in experiment [1] (setting [3]) was under 0.1 nM.
Consider `CC[N+]1=C(/C=C/C=C/C=C2/N(CCCCCC(=O)NCCCC[C@H](NC(=O)[C@H](Cc3ccc(F)cc3)N(C)C(=O)[C@@H]3CNC(=O)CC[C@H](NC(C)=O)C(=O)N[C@@H](Cc4ccc(O)cc4)C(=O)N[C@@H](CO)C(=O)N(C)[C@@H](CCc4ccccc4)C(=O)N(C)[C@@H](CCCCNC(C)=O)C(=O)N[C@@H](Cc4c[nH]c5ccc(O)cc45)C(=O)N[C@@H](Cc4c[nH]c5ccccc45)C(=O)N[C@@H]([C@H](C)O)C(=O)N3C)C(N)=O)c3ccc(S(=O)(=O)O)cc3C2(C)C)C(C)(C)c2cc(S(=O)(=O)O)ccc21` [Example D4], for which the Kd in experiment [1] worked out at 0.4 nM.
Consider `CC[N+]1=C(/C=C/C=C/C=C2/N(CCCCCC(=O)NCCOCCOCCOCCOCCOCCOCCOCCOCCOCCOCCC(=O)N[C@H]3CCCC(=O)NC[C@@H](C(=O)N(C)[C@@H](Cc4ccc(F)cc4)C(=O)N[C@@H](CCCCNC(=O)CN4CCN(CC(=O)O)CCN(CC(=O)O)CCN(CC(=O)O)CC4)C(N)=O)N(C)C(=O)[C@H](C4CC4)NC(=O)[C@H](Cc4c[nH]c5ccccc45)NC(=O)[C@H](Cc4c[nH]c5ccc(O)cc45)NC(=O)[C@H](CCCCNC(C)=O)N(C)C(=O)[C@H](CCc4ccccc4)N(C)C(=O)[C@H](CO)NC(=O)[C@H](Cc4ccc(O)cc4)NC3=O)c3ccc(S(=O)(=O)O)cc3C2(C)C)C(C)(C)c2cc(S(=O)(=O)[O-])ccc21` [Example D6], for which, in experiment [1] (setting [3]), the equilibrium dissociation constant (Kd) worked out at 0.1 nM.
`CC[N+]1=C(/C=C/C=C/C=C2/N(CCCCCC(=O)NCCOCCOCCOCCOCCOCCOCCOCCOCCOCCOCCC(=O)NCCCC[C@H](NC(=O)[C@H](Cc3ccc(F)cc3)N(C)C(=O)[C@@H]3CNC(=O)CCC[C@H](NC(C)=O)C(=O)N[C@@H](Cc4ccc(O)cc4)C(=O)N[C@@H](CO)C(=O)N(C)[C@@H](CCc4ccccc4)C(=O)N(C)[C@@H](CCCCNC(C)=O)C(=O)N[C@@H](Cc4c[nH]c5ccc(O)cc45)C(=O)N[C@@H](Cc4c[nH]c5ccccc45)C(=O)N[C@@H](C4CC4)C(=O)N3C)C(N)=O)c3ccc(S(=O)(=O)O)cc3C2(C)C)C(C)(C)c2cc(S(=O)(=O)[O-])ccc21` [Example D7] had a dissociation constant (Kd) in experiment [1] of under 0.1 nM.
